Results reported in patent US20080145465A1, “Sesquiterpene lactone extract from artemisia leucodes for reducing inflammation and down-regulating pro-inflammatory gene expression” (priority 2006, published 2008).
Entries after “also recorded” stand apart in the source; their conditions may differ.

Assays:
iNOS = test: Quantitative real-time RT-PCR: iNOS gene expression in LPS-elicited RAW 264.7 macrophages; format: cell-based, murine; settings: for iNOS gene expression (LPS control = 100; values less than 100 represent inhibition): Table 4 experiment
Experimental: (§1) RAW 264.7 murine monocyte/macrophages (ATCC TIB-71) were maintained in Dulbecco's Modified Eagle Medium (D-MEM, Invitrogen Corp., Carlsbad, Calif.) supplemented with 10% fetal bovine serum (FBS, Invitrogen Corp., Carlsbad, Calif.) and 1% streptomycin and were kept in a humidified 37° C. incubator with 5% CO2. Cells were subcultured by scraping when plates reached 90% confluency with a 1:5 ratio.
(§2) Murine RAW macrophages 264.7 were plated at a density of 0.4×10^6 cells per well in 24-well plates 12 hours prior to treatment. A stock solution of AL-1 was created by completely dissolving the dry extract as in Example 1 in 95% ethanol. Two hours before elicitation with lipopolysaccharide (LPS, 1 μg/ml, Sigma, St. Louis, Mo.) the cells were treated with various concentrations of AL-1 (25-200 μg/ml) or vehicle control, maintaining a final concentration of 0.5% ethanol for all treatments. After six hours of treatment, RNA was extracted from cells using TRIzol® reagent (Invitrogen Corp., Carlsbad, Calif.) according to the manufacturer instructions. RNAs were quantified spectrophotometrically at 260 nm and stored at −80° C. until real-time PCR could be performed.
(§3) RNA was purified by treating with DnaseI (Invitrogen Corp., Carlsbad, Calif.) before performing reverse transcription with Stratascript Reverse Transcriptase, an RNA dependent DNA polymerase (Stratagene, La Jolla, Calif.) according to the manufacturer instructions. The cDNAs obtained were then amplified by real-time PCR. Expression of COX-2, iNOS, IL1β and β-actin gene expression levels was quantified using a Stratagene Mx 3000P™ Real-Time PCR System (Stratagene, La Jolla, Calif.). Primers for each gene were designed using Primer Express® version 2.0 software (Applied Biosystems, Foster City, Calif.; Table 2) (Giulietti et al., 2001; Overbergh et al., 2003).
(§4) Real-time PCR analyses were carried out using a Brilliant® SYBR® Green PCR master mix kit (Stratagene, La Jolla, Calif.) according to kit instructions. Samples were amplified using the following program: two minutes incubation at 50° C.; initial denaturation and polymerase activation at 95° C. for ten minutes; 40 PCR cycles consisting of 15 seconds at 95° C. and 60 seconds at 60° C. each. The RNA expression of the target genes were analyzed by ΔΔCT methods (Winer et al., 1999) using β-Actin gene as normalizer. The ΔΔCT values obtained from these analyses directly reflect the relative mRNA quantities for the marker gene in response to specific treatments. Lower ΔΔCT values indicate greater anti-inflammatory activity. The changes in gene expression as reflected by ΔΔCT values can also be expressed as percentage genetic inhibition [(1−ΔΔCT)×100] indicating anti-inflammatory properties of the test compounds. Amplification of specific transcripts was further confirmed by obtaining melting curve profiles. All samples were run in duplicate; four independent analyses were performed.

[1] = tested on: nitric oxide (NO) production from RAW macrophages; test: Griess assay for NO production by LPS-stimulated RAW macrophages; format: cell-based, murine; settings: LPS 1 μg/mL, 24 hours, n = 8, % of control
IL1β = test: Quantitative real-time RT-PCR: IL1β gene expression in LPS-elicited RAW 264.7 macrophages; format: cell-based, murine; settings: for IL1β gene expression (LPS control = 100; values less than 100 represent inhibition): Table 4 experiment; for effect on IL1β gene expression (in words): LPS-elicited RAW macrophages
Experimental: as §1, §2, §3, §4

COX-1 = target: T1, COX-1 (Ovis aries, UniProt P05979); test: Colorimetric COX inhibitor screening assay, COX-1; format: biochemical, ovine; settings: data not shown
T1 construct: purchased Cayman Chemical Company
T1 sequence (P05979 25-600): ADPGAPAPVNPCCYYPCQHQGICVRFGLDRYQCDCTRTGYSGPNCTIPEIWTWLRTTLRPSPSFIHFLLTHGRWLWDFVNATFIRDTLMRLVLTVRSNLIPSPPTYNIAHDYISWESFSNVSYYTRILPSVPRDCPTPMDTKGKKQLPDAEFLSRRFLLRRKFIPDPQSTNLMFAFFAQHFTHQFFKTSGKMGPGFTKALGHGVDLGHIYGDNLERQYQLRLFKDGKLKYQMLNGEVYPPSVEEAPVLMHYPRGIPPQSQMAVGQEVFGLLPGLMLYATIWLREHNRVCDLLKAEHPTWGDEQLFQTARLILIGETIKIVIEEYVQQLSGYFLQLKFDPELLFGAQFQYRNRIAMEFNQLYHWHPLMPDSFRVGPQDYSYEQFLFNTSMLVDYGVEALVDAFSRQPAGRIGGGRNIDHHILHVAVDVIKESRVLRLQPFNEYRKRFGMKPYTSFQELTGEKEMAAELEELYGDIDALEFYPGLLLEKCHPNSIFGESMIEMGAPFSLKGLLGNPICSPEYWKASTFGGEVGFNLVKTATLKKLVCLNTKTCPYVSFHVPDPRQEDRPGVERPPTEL
Experimental: An ovine COX inhibitor screening assay (Cayman Chemical Company, Ann Arbor, Mich.) was used to measure inhibition of purified COX-1 and COX-2. This assay measures the peroxidase component of cyclooxygenases colorimetrically by monitoring the appearance of oxidized N,N,N′,N′-tetramethyl-p-phenylenediamine (TMPD) at 590 nm. Tablets of Vioxx (rofecoxib; Merck & Co., Inc., Whitehouse Station, N.J.) were ground and dissolved in methanol (1 mg/mL) to use as a positive control. AL-1, leukomisin, and austricin were also dissolved in methanol at 1 mg/mL. The assay was performed following manufacturer instructions. Vioxx, vehicle (100% initial activity), or treatments were added to a 96-well plate along with 180 μL assay mixture provided by the manufacturer containing 150 μL assay buffer, 10 μL heme, and 10 μL enzyme (COX-1 or COX-2). A background correction row received no enzyme and 10 μL additional assay buffer. After 5 min incubation at room temp, 20 μL of a colorimetric substrate solution containing TMPD and 20 μL arachadonic acid diluted in assay buffer were added to the plate. The plate was incubated for 5 min and the absorbance was read at 590 nm using a microplate reader (Molecular Devices, Sunnyvale, Calif.). To calculate percent inhibition, average absorbance was calculated for each sample (n=3). The background blank well absorbance was subtracted from each sample. […]

COX-2 = test: Quantitative real-time RT-PCR: COX-2 gene expression in LPS-elicited RAW 264.7 macrophages; format: cell-based, murine; settings: for COX-2 gene expression (LPS control = 100; values less than 100 represent inhibition): Table 4 experiment
Experimental: as §1, §2, §3, §4

## CC1=CC(=O)C2=C(C)C[C@H](O)[C@@H]3[C@H](OC(=O)[C@H]3C)[C@@H]12 (single isomer, unassigned) [austricin]
iNOS; 25 μg
  iNOS gene expression (LPS control = 100; values less than 100 represent inhibition): 102
iNOS; 50 μg
  iNOS gene expression (LPS control = 100; values less than 100 represent inhibition): 108
iNOS; 75 μg
  iNOS gene expression (LPS control = 100; values less than 100 represent inhibition): 113
[1]; 2 μg/ml
  NO production (relative to control), mean ± SE: 100 ± 1%
[1]; 4 μg/ml
  NO production (relative to control), mean ± SE: 100 ± 1%
IL1β; 25 μg
  IL1β gene expression (LPS control = 100; values less than 100 represent inhibition): 58
IL1β; 50 μg
  IL1β gene expression (LPS control = 100; values less than 100 represent inhibition): 65
IL1β; 75 μg
  IL1β gene expression (LPS control = 100; values less than 100 represent inhibition): 65
IL1β
  effect on IL1β gene expression (in words): only marginal activity
COX-1
  COX-1 enzyme inhibition (in words): did not inhibit COX-1; also recorded: did not significantly inhibit
COX-2; 25 μg
  COX-2 gene expression (LPS control = 100; values less than 100 represent inhibition): 120
COX-2; 50 μg
  COX-2 gene expression (LPS control = 100; values less than 100 represent inhibition): 116
COX-2; 75 μg
  COX-2 gene expression (LPS control = 100; values less than 100 represent inhibition): 102

## CC1=CC(=O)C2=C(C)CC[C@@H]3[C@H](OC(=O)[C@H]3C)[C@@H]12 [leukomisin]
iNOS; 25 μg
  iNOS gene expression (LPS control = 100; values less than 100 represent inhibition): 127
iNOS; 50 μg
  iNOS gene expression (LPS control = 100; values less than 100 represent inhibition): 151
iNOS; 75 μg
  iNOS gene expression (LPS control = 100; values less than 100 represent inhibition): 126
iNOS; LPS-elicited RAW macrophages
  effect on iNOS gene expression (in words): no affect on gene expression; also recorded: no activity
[1]; 2 μg/ml
  NO production (relative to control), mean ± SE: 100 ± 2%
[1]; 4 μg/ml
  NO production (relative to control), mean ± SE: 98 ± 1%
IL1β; 25 μg
  IL1β gene expression (LPS control = 100; values less than 100 represent inhibition): 110
IL1β; 50 μg
  IL1β gene expression (LPS control = 100; values less than 100 represent inhibition): 161
IL1β; 75 μg
  IL1β gene expression (LPS control = 100; values less than 100 represent inhibition): 281
IL1β
  effect on IL1β gene expression (in words): no affect on gene expression; also recorded: no activity
COX-1
  COX-1 enzyme inhibition (in words): did not inhibit COX-1 activity; also recorded: did not significantly inhibit
COX-2; 25 μg
  COX-2 gene expression (LPS control = 100; values less than 100 represent inhibition): 140
COX-2; 50 μg
  COX-2 gene expression (LPS control = 100; values less than 100 represent inhibition): 165
COX-2; 75 μg
  COX-2 gene expression (LPS control = 100; values less than 100 represent inhibition): 159
COX-2; LPS-elicited RAW macrophages
  effect on COX-2 gene expression (in words): no affect on gene expression; also recorded: no activity
